Tests used:
PPARγ = PPARγ (Homo sapiens, UniProt P37231); settings: at physiological concentrations
Text: (§1) For RXR: CV-1 cells were transfected with rCRBPII/RXRE-tk-Luc reporter gene and an expression vector for RXRα, β, or γ. For RAR: CV-1 cells were transfected with ERE-tk-Luc reporter gene and an expression vector for the appropriate ER-RARα, β, or γ. ER-RARs are fusion proteins, composed of the estrogen receptor (ER) DNA binding domain fused to the ligand binding domain of RARs. This system eliminates interference by the low level of endogenous RAR activity in CV1 cells as the readout comes only from the transfected ER-RAR. For PPARγ: CV-1 cells were transfected with 3x(rAOX/DR1)-tk-Luc reporter gene and an expression vector for PPARγ; for FXR: CV-1 cells were transfected with 3x(IBABP/IR1)-tk-Luc reporter gene and vectors for FXR and RXRα; for LXR: CV-1 cells were transfected with 3x(PLTP/LXRE)-tk-Luc reporter gene with vectors for LXRα or LXRβ. For Nurr1: COS7 cells were transfected with 3xNBRE-tk-luc reporter gene and full length Nurr1 with or without full-length RXRα plasmid. […] Luciferase data were normalized to co-transfected β-gal activity. Luciferase activity is expressed as percent of maximal activity obtained using specific agonists 9-cis-retinoic acid (RXR), retinoic acid (RAR), rosiglitazone (PPARγ), GW4064 (FXR), T0901317 (LXR).

RXRβ = RXRβ (Homo sapiens, UniProt P28702); settings: CV-1 cells, 20h
Chain of RXRβ (P28702 whole entry): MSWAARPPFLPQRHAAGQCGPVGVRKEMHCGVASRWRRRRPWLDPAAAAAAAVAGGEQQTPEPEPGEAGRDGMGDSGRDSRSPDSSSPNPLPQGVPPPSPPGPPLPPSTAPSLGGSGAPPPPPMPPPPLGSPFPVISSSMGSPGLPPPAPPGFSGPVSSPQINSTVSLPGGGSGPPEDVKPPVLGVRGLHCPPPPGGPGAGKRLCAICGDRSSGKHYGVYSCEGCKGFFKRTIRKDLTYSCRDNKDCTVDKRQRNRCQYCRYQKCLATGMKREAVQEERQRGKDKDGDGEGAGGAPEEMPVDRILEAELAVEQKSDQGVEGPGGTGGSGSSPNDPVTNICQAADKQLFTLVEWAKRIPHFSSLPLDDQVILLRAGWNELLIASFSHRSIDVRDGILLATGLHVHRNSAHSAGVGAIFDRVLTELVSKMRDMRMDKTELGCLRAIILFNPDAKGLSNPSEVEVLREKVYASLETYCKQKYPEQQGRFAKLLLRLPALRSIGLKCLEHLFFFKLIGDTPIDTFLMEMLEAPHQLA
Text: as §1

[1] = target: T1, farnesoid X receptor (FXR) (Homo sapiens, UniProt Q96RI1); assay: Receptor transactivation assay, FXR (CV-1 cells, FXR and RXRα vectors); format: cell-based; settings: at physiological concentrations
T1 sequence (Q96RI1 1-486): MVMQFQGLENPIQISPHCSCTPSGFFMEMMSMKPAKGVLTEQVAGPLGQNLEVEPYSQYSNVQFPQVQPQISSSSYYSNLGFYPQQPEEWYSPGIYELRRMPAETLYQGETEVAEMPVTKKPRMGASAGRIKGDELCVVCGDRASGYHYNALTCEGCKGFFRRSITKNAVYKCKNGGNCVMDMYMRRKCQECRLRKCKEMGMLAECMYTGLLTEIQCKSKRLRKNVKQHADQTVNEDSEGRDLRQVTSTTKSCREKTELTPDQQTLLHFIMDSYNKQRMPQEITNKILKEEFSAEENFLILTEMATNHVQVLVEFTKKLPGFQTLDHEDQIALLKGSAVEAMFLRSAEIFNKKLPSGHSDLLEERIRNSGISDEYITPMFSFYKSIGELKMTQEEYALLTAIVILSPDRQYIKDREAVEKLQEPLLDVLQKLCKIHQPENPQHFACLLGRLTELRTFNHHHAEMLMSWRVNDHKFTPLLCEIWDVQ
T1 sequence (P19793 1-462 partner): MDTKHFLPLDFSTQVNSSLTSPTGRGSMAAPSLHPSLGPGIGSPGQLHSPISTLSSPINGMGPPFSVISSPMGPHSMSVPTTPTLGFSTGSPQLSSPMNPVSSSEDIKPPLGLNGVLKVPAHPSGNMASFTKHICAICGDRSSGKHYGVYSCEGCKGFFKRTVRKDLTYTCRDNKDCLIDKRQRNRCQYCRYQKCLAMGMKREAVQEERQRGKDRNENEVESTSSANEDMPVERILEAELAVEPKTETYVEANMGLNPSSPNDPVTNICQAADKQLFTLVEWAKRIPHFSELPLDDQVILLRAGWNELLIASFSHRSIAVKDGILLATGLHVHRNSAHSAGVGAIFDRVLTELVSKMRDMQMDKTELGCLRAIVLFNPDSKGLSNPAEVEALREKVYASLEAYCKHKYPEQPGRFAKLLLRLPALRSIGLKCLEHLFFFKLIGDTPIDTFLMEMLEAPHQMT
Text: as §1

LXRα = LXRα (Homo sapiens, UniProt Q13133); assay: Receptor transactivation assay, LXRα (CV-1 cells); format: cell-based; settings: at physiological concentrations
Chain of LXRα (Q13133 whole entry, one chain of several): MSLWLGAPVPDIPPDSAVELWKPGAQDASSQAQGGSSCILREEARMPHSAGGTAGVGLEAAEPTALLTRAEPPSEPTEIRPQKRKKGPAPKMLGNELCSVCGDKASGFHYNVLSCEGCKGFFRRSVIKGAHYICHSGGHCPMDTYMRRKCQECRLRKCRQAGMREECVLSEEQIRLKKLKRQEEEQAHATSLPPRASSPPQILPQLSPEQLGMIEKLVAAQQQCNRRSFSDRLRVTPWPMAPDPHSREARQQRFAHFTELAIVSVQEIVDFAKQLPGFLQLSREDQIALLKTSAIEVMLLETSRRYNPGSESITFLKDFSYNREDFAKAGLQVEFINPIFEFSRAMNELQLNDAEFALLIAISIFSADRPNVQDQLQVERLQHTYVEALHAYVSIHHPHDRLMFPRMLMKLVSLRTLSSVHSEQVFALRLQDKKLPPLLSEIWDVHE
Description: For PPARγ: CV-1 cells were transfected with 3x(rAOX/DR1)-tk-Luc reporter gene and an expression vector for PPARγ; for FXR: CV-1 cells were transfected with 3x(IBABP/IR1)-tk-Luc reporter gene and vectors for FXR and RXRα; for LXR: CV-1 cells were transfected with 3x(PLTP/LXRE)-tk-Luc reporter gene with vectors for LXRα or LXRβ. […] Luciferase data were normalized to co-transfected β-gal activity. Luciferase activity is expressed as percent of maximal activity obtained using specific agonists 9-cis-retinoic acid (RXR), retinoic acid (RAR), rosiglitazone (PPARγ), GW4064 (FXR), T0901317 (LXR).

primary VMB neurons = assay: Nurr1 downstream gene expression in VMB neurons (real time PCR); format: cell-based, mouse; settings: 1nM, 16 hours
Description: Ventral midbrain (VMB) from E13.5-14.5 C57BL/6 mouse embryos were dissected, triturated and plated on poly-D-lysine coated 12 well plates or glass coverslips with the serum-free chemically-defined Neurobasal medium, supplemented with 2% B27, 0.5mM L-glutamine, 50I.U./ml penicillin and 50μg/ml streptomycin (Gibco-BRL). […] For each time point, cells were washed once with phosphate buffered saline and fixed with 4% paraformaldehyde for TH immunofluorescent staining. For cell counting, 10 frames were randomly captured from each well using a Leica fluorescent microscope and a minimum of four replicates for each dose and each time point were analyzed for each experiment.
Total RNA from VMB neurons or rat substantia nigra were isolated using the RNeasy Mini Kit from Qiagen (Valencia, CA) and 1μg of total RNA was reverse transcribed using SuperScript III first-strand synthesis supermix for qRT-PCR from Invitrogen (Carlsbad, CA) according to the manufacturer's instruction. Quantitative RT-PCR was performed using Maxima SYBR Green master mix (Fermentas) in ABI Prism 7900HT in four replicates with primers amplifying the target genes. Expression level of actin was used as an internal control. Data were normalized using the 2^−ΔΔCt method. Levels of target gene mRNAs were expressed relative to those in vehicle control groups and plotted in GraphPad Prism.

6-OHDA lesioned rats = assay: Cylinder test in 6-OHDA lesioned rat model of PD; format: in vivo; settings: 10mg/kg/day gavage for three weeks, day 17 and day 24 post-lesion, p < 0.05
Description: All surgical procedures were performed under general anesthesia with ketamine/xylazine. 2μl 6-OHDA (20 mg/ml in 0.02% ascorbic acid) was stereotaxically injected into the right striatum of male SD rats. Lesion coordinates were set according to bregma and dura in mm: ML-3.7; AP-1.0; DV-5.5. The injection rate was 2μl/5 min and the injecting needle was left for 2 minutes after injection to avoid back flow. Apomorphine-induced rotations (see below) were assessed three days post-lesion and rats with ≥ 30 full contralateral rotation/30 minutes were included in the study.
Rats were randomly grouped into vehicle control group (n = 11) and drug treatment group (n = 10). […] The control group received DMSO/corn oil (vehicle). The treatment continued for three weeks.
The cylinder test was used to test for forelimb use asymmetry. Rats to be tested were placed individually in a glass cylinder (21 cm diameter, 34 cm height) and wall exploration was recorded for five minutes. Wall exploration was expressed in terms of the percentage of impaired (right) forelimb vs. total (right+left+both) usage. Paw placement test was performed before the lesion for baseline, three days post lesion and two weeks and three weeks following treatment.

Chain of PPARγ (P37231 whole entry, species assumed, one chain of several, the tested form may be a part): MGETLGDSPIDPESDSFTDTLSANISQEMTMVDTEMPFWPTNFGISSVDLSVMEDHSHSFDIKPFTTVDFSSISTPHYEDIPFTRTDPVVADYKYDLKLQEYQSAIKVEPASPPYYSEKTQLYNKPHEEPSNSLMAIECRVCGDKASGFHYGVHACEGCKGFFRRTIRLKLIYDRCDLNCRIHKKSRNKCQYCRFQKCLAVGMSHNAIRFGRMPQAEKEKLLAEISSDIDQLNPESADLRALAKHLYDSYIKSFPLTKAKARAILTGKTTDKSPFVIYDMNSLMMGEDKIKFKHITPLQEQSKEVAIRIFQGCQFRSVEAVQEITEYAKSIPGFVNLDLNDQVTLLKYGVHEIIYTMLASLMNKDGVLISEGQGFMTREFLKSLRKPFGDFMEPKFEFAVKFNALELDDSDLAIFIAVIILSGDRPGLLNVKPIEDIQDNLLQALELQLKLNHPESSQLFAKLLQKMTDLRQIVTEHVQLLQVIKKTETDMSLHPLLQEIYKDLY

CC(/C=C/[C@@H]1C[C@]1(C)c1ccc2c(c1)C(C)(C)CCC2(C)C)=C\C(=O)O [IRX4204]
activation of RXR heterodimer of PPARγ (PPARγ): does not activate | concentration that fully activates RXRβ (RXRβ): 1 nM | concentration that partially activates RXRβ (RXRβ): 0.1 nM | activation of RXR heterodimer of FXR [1]: does not activate | activation of RXR heterodimer of LXRα (LXRα): does not activate | expression of dopa-decarboxylase (DDC) (primary VMB neurons): significantly increased | expression of dopamine transporter (DAT) (primary VMB neurons): significantly increased | spontaneous forelimb use in the cylinder test (6-OHDA lesioned rats): significantly improved spontaneous forelimb use to pre-lesion levels

Reference: article PMC4884932, “Selective brain penetrable Nurr1 transactivator for treating Parkinson's disease” (Oncotarget, 2016)
